Results from US12491251B2, “Degraders of cyclin-dependent kinase 7 (CDK7) and uses thereof” (DANA-FARBER CANCER INSTITUTE, INC., priority 2019, dated 2025).

target: T1, CDK7 (Homo sapiens, UniProt P50613); assay: CDK7 degradation in Jurkat cells by immunoblot; format: cell-based; settings: 1 μM compound, 6 hours, vs DMSO
T1 construct: endogenous in cells; host or cells: Jurkat cells
Experimental: Jurkat cells were treated with DMSO or 1 μM of compounds 1-26 for 6 hours. Cells were then lysed in radioimmunoprecipitation assay (RIPA) buffer (Sigma® Life Science) containing protease/phosphatase inhibitor cocktail (Roche). The protein concentrations were measured by bicinchoninic acid assay (BCA) analysis (Pierce™). Equal amounts of protein were resolved by 4-12% Tris-Base gels (Invitrogen™), and then transferred to the immunoblot polyvinylidene difluoride (PVDF) membrane (BioRad), and immunoblotted with primary antibodies against CDK7 (cell signaling) and glyceraldehyde 3-phosphate dehydrogenase (GAPDH) (Cell Signaling Technology®), and then immunoblotted with IRDye®800-labeled goat anti-rabbit immunoglobulin G (IgG) and IRDye®680-labeled goat anti-mouse IgG (LI-COR®) secondary antibodies. The membranes were detected on an Odyssey® CLx system.

T1 sequence (P50613 2-346 limits assumed): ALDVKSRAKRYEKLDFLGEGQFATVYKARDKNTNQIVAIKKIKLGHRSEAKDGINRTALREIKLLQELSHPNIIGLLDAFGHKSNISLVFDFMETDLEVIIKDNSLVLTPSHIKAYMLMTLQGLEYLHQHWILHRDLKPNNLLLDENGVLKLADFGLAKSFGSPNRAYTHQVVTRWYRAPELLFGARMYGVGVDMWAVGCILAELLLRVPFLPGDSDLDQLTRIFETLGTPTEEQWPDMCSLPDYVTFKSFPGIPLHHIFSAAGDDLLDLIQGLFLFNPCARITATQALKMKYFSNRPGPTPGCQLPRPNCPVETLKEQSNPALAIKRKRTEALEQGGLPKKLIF
T1 sequence (P51946 whole entry partner): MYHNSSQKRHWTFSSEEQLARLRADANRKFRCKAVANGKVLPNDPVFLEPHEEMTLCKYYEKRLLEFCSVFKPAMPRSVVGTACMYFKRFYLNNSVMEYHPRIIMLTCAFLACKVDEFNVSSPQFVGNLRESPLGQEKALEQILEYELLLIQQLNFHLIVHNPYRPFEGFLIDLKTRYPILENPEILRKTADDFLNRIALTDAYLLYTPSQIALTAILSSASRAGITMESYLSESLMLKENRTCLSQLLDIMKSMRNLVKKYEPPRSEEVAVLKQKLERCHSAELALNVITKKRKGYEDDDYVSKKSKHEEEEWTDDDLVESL
T1 sequence (P51948 whole entry partner): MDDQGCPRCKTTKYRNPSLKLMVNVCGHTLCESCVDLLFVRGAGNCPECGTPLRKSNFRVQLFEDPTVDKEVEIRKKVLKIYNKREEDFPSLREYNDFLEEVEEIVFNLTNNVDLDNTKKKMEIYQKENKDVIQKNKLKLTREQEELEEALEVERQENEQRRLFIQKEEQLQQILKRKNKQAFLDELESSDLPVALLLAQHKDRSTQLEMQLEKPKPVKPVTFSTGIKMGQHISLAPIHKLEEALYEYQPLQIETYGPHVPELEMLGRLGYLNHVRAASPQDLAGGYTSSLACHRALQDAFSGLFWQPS

degradation of CDK7 (immunoblot) | Compound
induced the degradation of CDK7 | Cc1ncsc1-c1ccc([C@H](C)NC(=O)[C@@H]2C[C@@H](O)CN2C(=O)[C@@H](NC(=O)CCCCCNC(=O)c2ccc(C(=O)Nc3n[nH]c4c3CN(C(=O)N[C@H](CN(C)C)c3ccccc3)C4(C)C)cc2)C(C)(C)C)cc1 [Compound 12, N^1-(5-(((S)-2-(dimethylamino)-1-phenylethyl)carbamoyl)-6,6-dimethyl-1,4,5,6-tetrahydropyrrolo[3,4-c]pyrazol-3-yl)-N^4-(6-(((S)-1-((2S,4R)-4-hydroxy-2-(((S)-1-(4-(4-methylthiazol-5-yl)phenyl)ethyl)carbamoyl)pyrrolidin-1-yl)-3,3-dimethyl-1-oxobutan-2-yl)amino)-6-oxohexyl)terephthalamide]
induced the degradation of CDK7 | Cc1ncsc1-c1ccc([C@H](C)NC(=O)[C@@H]2C[C@@H](O)CN2C(=O)[C@@H](NC(=O)CCOCCNC(=O)c2ccc(C(=O)Nc3n[nH]c4c3CN(C(=O)N[C@H](CN(C)C)c3ccccc3)C4(C)C)cc2)C(C)(C)C)cc1 [Compound 15, N^1-(5-(((S)-2-(dimethylamino)-1-phenylethyl)carbamoyl)-6,6-dimethyl-1,4,5,6-tetrahydropyrrolo[3,4-c]pyrazol-3-yl)-N^4-(2-(3-(((S)-1-((2S,4R)-4-hydroxy-2-(((S)-1-(4-(4-methylthiazol-5-yl)phenyl)ethyl)carbamoyl)pyrrolidin-1-yl)-3,3-dimethyl-1-oxobutan-2-yl)amino)-3-oxopropoxy)ethyl)terephthalamide]
induced the degradation of CDK7 | CN(C)C[C@@H](NC(=O)N1Cc2c(NC(=O)c3ccc(C(=O)NCCCCCNc4ccc5c(c4)C(=O)N(C4CCC(=O)NC4=O)C5=O)cc3)n[nH]c2C1(C)C)c1ccccc1 (stereo partly drawn) [Compound 21, N^1-(5-(((S)-2-(dimethylamino)-1-phenylethyl)carbamoyl)-6,6-dimethyl-1,4,5,6-tetrahydropyrrolo[3,4-c]pyrazol-3-yl)-N^4-(5-((2-(2,6-dioxopiperidin-3-yl)-1,3-dioxoisoindolin-5-yl)amino)pentyl)terephthalamide]
induced the degradation of CDK7 | Cc1ncsc1-c1ccc([C@H](C)NC(=O)[C@@H]2C[C@@H](O)CN2C(=O)[C@@H](NC(=O)CCCCCCCNC(=O)c2ccc(C(=O)Nc3n[nH]c4c3CN(C(=O)N[C@H](CN(C)C)c3ccccc3)C4(C)C)cc2)C(C)(C)C)cc1 [Compound 23, N^1-(5-(((S)-2-(dimethylamino)-1-phenylethyl)carbamoyl)-6,6-dimethyl-1,4,5,6-tetrahydropyrrolo[3,4-c]pyrazol-3-yl)-N^4-(8-(((S)-1-((2S,4R)-4-hydroxy-2-(((S)-1-(4-(4-methylthiazol-5-yl)phenyl)ethyl)carbamoyl)pyrrolidin-1-yl)-3,3-dimethyl-1-oxobutan-2-yl)amino)-8-oxooctyl)terephthalamide]
induced the degradation of CDK7 | Cc1ncsc1-c1ccc([C@H](C)NC(=O)[C@@H]2C[C@@H](O)CN2C(=O)[C@@H](NC(=O)CCOCCOCCOCCNC(=O)c2ccc(C(=O)Nc3n[nH]c4c3CN(C(=O)N[C@H](CN(C)C)c3ccccc3)C4(C)C)cc2)C(C)(C)C)cc1 [Compound 25, N^1-(5-(((S)-2-(dimethylamino)-1-phenylethyl)carbamoyl)-6,6-dimethyl-1,4,5,6-tetrahydropyrrolo[3,4-c]pyrazol-3-yl)-N^4—((S)-14-((2S,4R)-4-hydroxy-2-(((S)-1-(4-(4-methylthiazol-5-yl)phenyl)ethyl)carbamoyl)pyrrolidine-1-carbonyl)-15,15-dimethyl-12-oxo-3,6,9-trioxa-13-azahexadecyl)terephthalamide]

The remaining lines, values behind:

Compound | degradation of CDK7 (immunoblot)
CN(C)C[C@@H](NC(=O)N1Cc2c(NC(=O)c3ccc(C(=O)NCCOCCOCCOCCNc4cccc5c4C(=O)N(C4CCC(=O)NC4=O)C5=O)cc3)n[nH]c2C1(C)C)c1ccccc1 (stereo partly drawn) [Compound 1, N1-(5-(((S)-2-(dimethylamino)-1-phenylethyl)carbamoyl)-6,6-dimethyl-1,4,5,6-tetrahydropyrrolo[3,4-c]pyrazol-3-yl)-N4-(2-(2-(2-(2-((2-(2,6-dioxopiperidin-3-yl)-1,3-dioxoisoindolin-4-yl)amino)ethoxy)ethoxy)ethoxy)ethyl)terephthalamide] | induced the degradation of CDK7
Cc1ncsc1-c1ccc([C@H](C)NC(=O)[C@@H]2C[C@@H](O)CN2C(=O)[C@@H](NC(=O)CCOCCOCCNC(=O)c2ccc(C(=O)Nc3n[nH]c4c3CN(C(=O)N[C@H](CN(C)C)c3ccccc3)C4(C)C)cc2)C(C)(C)C)cc1 [Compound 6] | induced the degradation of CDK7
CN(C)C[C@@H](NC(=O)N1Cc2c(NC(=O)c3ccc(C(=O)NCCCCC#Cc4cccc5c4C(=O)N(C4CCC(=O)NC4=O)C5=O)cc3)n[nH]c2C1(C)C)c1ccccc1 (stereo partly drawn) [Compound 7, N^1-(5-(((S)-2-(dimethylamino)-1-phenylethyl)carbamoyl)-6,6-dimethyl-1,4,5,6-tetrahydropyrrolo[3,4-c]pyrazol-3-yl)-N^4-(6-(2-(2,6-dioxopiperidin-3-yl)-1,3-dioxoisoindolin-4-yl)hex-5-yn-1-yl)terephthalamide] | induced the degradation of CDK7
CN(C)C[C@@H](NC(=O)N1Cc2c(NC(=O)c3ccc(C(=O)NCCCCCOc4cccc5c4C(=O)N(C4CCC(=O)NC4=O)C5=O)cc3)n[nH]c2C1(C)C)c1ccccc1 (stereo partly drawn) [Compound 8, N^1-(5-(((S)-2-(dimethylamino)-1-phenylethyl)carbamoyl)-6,6-dimethyl-1,4,5,6-tetrahydropyrrolo[3,4-c]pyrazol-3-yl)-N^4-(5-((2-(2,6-dioxopiperidin-3-yl)-1,3-dioxoisoindolin-4-yl)oxy)pentyl)terephthalamide] | induced the degradation of CDK7
CN(C)C[C@@H](NC(=O)N1Cc2c(NC(=O)c3ccc(C(=O)NCCCCCCCCOc4cccc5c4C(=O)N(C4CCC(=O)NC4=O)C5=O)cc3)n[nH]c2C1(C)C)c1ccccc1 (stereo partly drawn) [Compound 9, N^1-(5-(((S)-2-(dimethylamino)-1-phenylethyl)carbamoyl)-6,6-dimethyl-1,4,5,6-tetrahydropyrrolo[3,4-c]pyrazol-3-yl)-N^4-(8-((2-(2,6-dioxopiperidin-3-yl)-1,3-dioxoisoindolin-4-yl)oxy)octyl)terephthalamide] | induced the degradation of CDK7
CN(C)C[C@@H](NC(=O)N1Cc2c(NC(=O)c3ccc(NC(=O)CCCCCCCCCCOc4cccc5c4C(=O)N(C4CCC(=O)NC4=O)C5=O)cc3)n[nH]c2C1(C)C)c1ccccc1 (stereo partly drawn) [Compound 10, N—((S)-2-(dimethylamino)-1-phenylethyl)-3-(4-(11-((2-(2,6-dioxopiperidin-3-yl)-1,3-dioxoisoindolin-4-yl)oxy)undecanamido)benzamido)-6,6-dimethyl-4,6-dihydropyrrolo[3,4-c]pyrazole-5(1H)-carboxamide] | induced the degradation of CDK7
CN(C)C[C@@H](NC(=O)N1Cc2c(NC(=O)c3ccc(C(=O)NCCCCCCc4cccc5c4C(=O)N(C4CCC(=O)NC4=O)C5=O)cc3)n[nH]c2C1(C)C)c1ccccc1 (stereo partly drawn) [Compound 13, N^1-(5-(((S)-2-(dimethylamino)-1-phenylethyl)carbamoyl)-6,6-dimethyl-1,4,5,6-tetrahydropyrrolo[3,4-c]pyrazol-3-yl)-N^4-(6-(2-(2,6-dioxopiperidin-3-yl)-1,3-dioxoisoindolin-4-yl)hexyl)terephthalamide] | induced the degradation of CDK7
CN(C)C[C@@H](NC(=O)N1Cc2c(NC(=O)c3ccc(NC(=O)CCCNc4cccc5c4C(=O)N(C4CCC(=O)NC4=O)C5=O)cc3)n[nH]c2C1(C)C)c1ccccc1 (stereo partly drawn) [Compound 16, N—((S)-2-(dimethylamino)-1-phenylethyl)-3-(4-(4-((2-(2,6-dioxopiperidin-3-yl)-1,3-dioxoisoindolin-4-yl)amino)butanamido)benzamido)-6,6-dimethyl-4,6-dihydropyrrolo[3,4-c]pyrazole-5(1H)-carboxamide] | induced the degradation of CDK7
Cc1ncsc1-c1ccc([C@H](C)NC(=O)[C@@H]2C[C@@H](O)CN2C(=O)[C@@H](NC(=O)CCCCCCNC(=O)c2ccc(C(=O)Nc3n[nH]c4c3CN(C(=O)N[C@H](CN(C)C)c3ccccc3)C4(C)C)cc2)C(C)(C)C)cc1 [Compound 22, N^1-(5-(((S)-2-(dimethylamino)-1-phenylethyl)carbamoyl)-6,6-dimethyl-1,4,5,6-tetrahydropyrrolo[3,4-c]pyrazol-3-yl)-N^4-(7-(((S)-1-((2S,4R)-4-hydroxy-2-(((S)-1-(4-(4-methylthiazol-5-yl)phenyl)ethyl)carbamoyl)pyrrolidin-1-yl)-3,3-dimethyl-1-oxobutan-2-yl)amino)-7-oxoheptyl)terephthalamide] | induced the degradation of CDK7
CN(C)C[C@@H](NC(=O)N1Cc2c(NC(=O)c3ccc(C(=O)NCCOCCOCCNc4cccc5c4C(=O)N(C4CCC(=O)NC4=O)C5=O)cc3)n[nH]c2C1(C)C)c1ccccc1 (stereo partly drawn) [Compound 26, N^1-(5-(((S)-2-(dimethylamino)-1-phenylethyl)carbamoyl)-6,6-dimethyl-1,4,5,6-tetrahydropyrrolo[3,4-c]pyrazol-3-yl)-N^4-(2-(2-(2-((2-(2,6-dioxopiperidin-3-yl)-1,3-dioxoisoindolin-4-yl)amino)ethoxy)ethoxy)ethyl)terephthalamide] | induced the degradation of CDK7
